Assay results: US9574216B2, “Auto-indicible expression system, and the use thereof for producing useful metabolites using a bacterium of the family enterobacteriaceae” (priority 2012, dated 2017)

Columns and labels:
β-galactosidase LacZ = assay: Activity of β-galactosidase LacZ by Miller's method; assay type: cell-based, E. coli; conditions: strain B7; +IPTG, 1 mM; middle-logarithmic phase, M9:LB (9:1) with glucose 0.4%
Procedure: For the measurement of β-galactosidase activity, the strains were grown to the middle-logarithmic phase in M9:LB (9:1, v/v) medium supplemented with glucose (0.4%, w/v). The medium for the strains having ilvAYC deletion and AHAS-deficient strains was additionally supplemented with Ile (25 mg/1) and Val (25 mg/1). Activity of β-galactosidase was measured according to Miller's method (Miller J. H. (1972) Experiments in molecular genetics. Cold Spring Harbor Laboratory, Cold Spring Harbor). The data presented in Table 2 indicate that expression level of the reporter lacZ gene under PilvC promoter varies within the range of more than two orders of magnitude depending on the genetic background. The maximal expression level was provided by the E. coli strains modified to overexpress L-valine resistant AHAS I (the product of the ilvBN4 genes) or/and containing inactivated the isomeroreductase IlvC encoding gene (ilvC).

AHAS I = target: T1, AHAS I (Escherichia coli, UniProt P08142+P0ADF8, N17K); assay: Activity of AHAS I in crude cell extracts with or without addition of 10 mM L-Val; assay type: biochemical, E. coli
T1 construct: expressed in transfected cells; host or cells: E. coli K12 B7 (VKPM B-7) ΔilvGM ΔilvIH with a chromosomal ilvBN4 operon under PilvC (or PL); crude cell extracts
Procedure: Cells were grown to the middle-logarithmic phase in M9:LB (9:1, v/v) medium supplemented with glucose (0.4%, w/v). Activity of AHAS I in crude cells extracts was measured with or without addition of 10 mM L-Val according to the assay described in Stormer F. and Umbarger H., Biochem. Biophys. Res. Commun., 1964, 17(5):587-592.

T1 sequence (P08142 whole entry): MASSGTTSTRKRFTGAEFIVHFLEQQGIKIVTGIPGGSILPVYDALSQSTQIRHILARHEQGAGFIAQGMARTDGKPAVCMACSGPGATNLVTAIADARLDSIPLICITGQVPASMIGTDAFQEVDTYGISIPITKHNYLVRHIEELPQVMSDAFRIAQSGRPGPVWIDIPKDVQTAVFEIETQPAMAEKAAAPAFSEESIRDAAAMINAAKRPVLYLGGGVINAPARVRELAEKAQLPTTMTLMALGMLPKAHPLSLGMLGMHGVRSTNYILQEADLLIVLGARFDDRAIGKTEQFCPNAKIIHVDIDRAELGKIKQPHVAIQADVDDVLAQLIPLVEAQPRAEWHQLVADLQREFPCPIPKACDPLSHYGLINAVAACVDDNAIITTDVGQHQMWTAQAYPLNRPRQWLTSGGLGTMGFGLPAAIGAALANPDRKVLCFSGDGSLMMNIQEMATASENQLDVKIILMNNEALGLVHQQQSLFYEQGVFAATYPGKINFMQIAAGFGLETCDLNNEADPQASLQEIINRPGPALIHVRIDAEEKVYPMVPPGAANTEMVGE
T1 sequence (P0ADF8 whole entry N17K): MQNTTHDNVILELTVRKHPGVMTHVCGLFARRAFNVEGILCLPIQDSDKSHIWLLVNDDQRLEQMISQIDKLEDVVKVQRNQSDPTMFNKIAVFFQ

Row | Compound | Specific activity of β-galactosidase (β-galactosidase LacZ) | AHAS I activity with L-Val, 10 mM (percent of value, measured without L-Val addition) (AHAS I; crude extract of strain B7 ΔilvGM ΔilvIH PL-ilvBN4 (control)) | AHAS I activity with L-Val, 10 mM (AHAS I; crude extract of strain B7 ΔilvGM ΔilvIH PL-ilvBN4 (control), mean of triplicate) | AHAS I activity with L-Val, 10 mM (percent of value, measured without L-Val addition) (AHAS I; crude extract of strain B7 ΔilvGM ΔilvIH cat-ilvY-PilvC-ilvBN4 cl.1) | AHAS I activity with L-Val, 10 mM (AHAS I; crude extract of strain B7 ΔilvGM ΔilvIH cat-ilvY-PilvC-ilvBN4 cl.1, mean of triplicate) | AHAS I activity with L-Val, 10 mM (percent of value, measured without L-Val addition) (AHAS I; crude extract of strain B7 ΔilvGM ΔilvIH cat-ilvY-PilvC-ilvBN4 cl.4) | AHAS I activity with L-Val, 10 mM (AHAS I; crude extract of strain B7 ΔilvGM ΔilvIH cat-ilvY-PilvC-ilvBN4 cl.4, mean of triplicate)
1 | CC(C)S[C@@H]1O[C@H](CO)[C@H](O)[C@H](O)[C@H]1O [IPTG] | 1200 Miller's units | – | – | – | – | – | –
2 | CC(C)[C@H](N)C(=O)O [L-Val, L-valine] | – | 86% | 51 nmol/min/mg | 88% | 80 nmol/min/mg | 88% | 106 nmol/min/mg
